Reference: patent publication US20130123253A1, “MODULATORS OF CENTRAL NERVOUS SYSTEM NEUROTRANSMITTERS” (HUMAN BIOMOLECULAR RESEARCH INSTITUTE, priority 2004, published 2013)
Like-named read-outs stand apart in the source and are kept apart here.

Legend:
GRK2 = target: T1, GRK2 (Homo sapiens, UniProt P25098); test: High throughput KinaseGlo kinase assay; assay type: biochemical
T1 construct: host or cells: gift of a collaborator (Professor Benovic, Thomas Jefferson University)
T1 sequence (P25098 1-689): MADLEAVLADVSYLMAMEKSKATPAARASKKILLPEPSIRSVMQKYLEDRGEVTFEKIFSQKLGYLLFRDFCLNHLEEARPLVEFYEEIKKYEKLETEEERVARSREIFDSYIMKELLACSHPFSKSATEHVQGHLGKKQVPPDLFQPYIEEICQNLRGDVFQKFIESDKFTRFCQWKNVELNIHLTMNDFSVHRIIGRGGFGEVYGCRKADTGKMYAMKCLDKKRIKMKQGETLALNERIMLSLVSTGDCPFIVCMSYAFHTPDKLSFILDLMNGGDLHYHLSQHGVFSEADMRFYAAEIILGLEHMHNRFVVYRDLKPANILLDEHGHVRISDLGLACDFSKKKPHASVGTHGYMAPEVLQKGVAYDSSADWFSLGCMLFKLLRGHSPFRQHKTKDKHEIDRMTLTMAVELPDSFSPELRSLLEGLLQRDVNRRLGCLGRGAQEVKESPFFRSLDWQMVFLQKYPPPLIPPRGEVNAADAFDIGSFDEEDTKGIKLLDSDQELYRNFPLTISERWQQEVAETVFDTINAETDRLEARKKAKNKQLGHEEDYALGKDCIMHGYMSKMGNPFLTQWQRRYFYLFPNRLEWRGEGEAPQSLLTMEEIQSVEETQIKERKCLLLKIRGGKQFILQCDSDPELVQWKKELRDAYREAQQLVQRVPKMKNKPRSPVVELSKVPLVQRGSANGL
From the text: A homogenous KinaseGlo assay was developed and conducted in a 96-well format. Briefly, the assay design allowed large numbers of tests to be done in a high throughput fashion using a 96-well plate reader system. The KinaseGlo assay involved transfer of γ-phosphate from [γ^33P]ATP by GRK2 to tubulin.

rodent PDE4 = test: Inhibition of rodent PDE4 (rolipram binding sites); details: Table 4
Protocol: IC50 values for inhibitor interaction with this site were calculated by nonlinear regression analysis of competition curves for unlabeled PDE4 inhibitors; Ki values were determined according to the method of Cheng and Prusoff (1973). […] Competition curves for the PDE4 inhibitors were subjected to nonlinear regression analysis and IC50 values with which the inhibitors bind to each of the binding sites was determined; K1 values were determined according to the method of Cheng and Prusoff (1973).

human PDE4D3 = target: T2, human PDE4D3 (Homo sapiens, UniProt Q08499); test: Inhibition of cAMP hydrolysis by recombinant human PDE4D3; assay type: biochemical
T2 construct: made in house; host or cells: Cos 7 cells (construct and cells a gift from Dr. Conti, Stanford)
T2 sequence (Q08499 1-673 isoform Q08499-2): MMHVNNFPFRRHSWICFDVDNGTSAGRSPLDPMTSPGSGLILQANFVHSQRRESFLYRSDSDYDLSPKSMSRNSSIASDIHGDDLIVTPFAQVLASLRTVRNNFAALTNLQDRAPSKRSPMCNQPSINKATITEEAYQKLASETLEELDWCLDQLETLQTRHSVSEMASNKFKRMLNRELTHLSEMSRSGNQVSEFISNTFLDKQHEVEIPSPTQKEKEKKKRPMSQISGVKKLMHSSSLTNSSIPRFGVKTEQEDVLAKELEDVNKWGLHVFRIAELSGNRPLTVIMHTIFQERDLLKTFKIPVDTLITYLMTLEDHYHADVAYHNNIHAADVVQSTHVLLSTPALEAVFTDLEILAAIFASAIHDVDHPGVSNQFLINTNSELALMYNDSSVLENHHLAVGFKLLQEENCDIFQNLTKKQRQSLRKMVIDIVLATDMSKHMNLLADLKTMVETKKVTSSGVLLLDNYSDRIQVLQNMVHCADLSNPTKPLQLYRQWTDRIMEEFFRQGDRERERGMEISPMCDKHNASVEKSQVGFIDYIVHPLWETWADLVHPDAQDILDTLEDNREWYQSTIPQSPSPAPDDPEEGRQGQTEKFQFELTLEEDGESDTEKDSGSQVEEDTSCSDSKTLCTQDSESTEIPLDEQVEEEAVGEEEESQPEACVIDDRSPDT
Protocol: The PDE construct was transfected into Cos 7 cells in round culture dish (100×20 mm). The cells were then harvested and homogenized with lysis buffer. The crude homogenate was spun at maximum speed in a microfuge. The supernatant fluid was saved as an extract. […] The PDE construct and Cos 7 cells were a kind gift from Dr. Conti at the Stanford University School of Medicine.
(§1) PDE4 enzyme assays were carried out as described previously. Studies with recombinant PDE4 enzymes were carried out in the laboratory of Professor Marco Conti (Stanford University, Palo Alto, Calif.).

human PDE4B3 = target: T3, human PDE4B3 (Homo sapiens, UniProt Q07343); test: Inhibition of cAMP hydrolysis by recombinant human PDE4B3; assay type: biochemical; details: Example 29
T3 construct: made in house
T3 sequence (Q07343 1-721 isoform Q07343-3): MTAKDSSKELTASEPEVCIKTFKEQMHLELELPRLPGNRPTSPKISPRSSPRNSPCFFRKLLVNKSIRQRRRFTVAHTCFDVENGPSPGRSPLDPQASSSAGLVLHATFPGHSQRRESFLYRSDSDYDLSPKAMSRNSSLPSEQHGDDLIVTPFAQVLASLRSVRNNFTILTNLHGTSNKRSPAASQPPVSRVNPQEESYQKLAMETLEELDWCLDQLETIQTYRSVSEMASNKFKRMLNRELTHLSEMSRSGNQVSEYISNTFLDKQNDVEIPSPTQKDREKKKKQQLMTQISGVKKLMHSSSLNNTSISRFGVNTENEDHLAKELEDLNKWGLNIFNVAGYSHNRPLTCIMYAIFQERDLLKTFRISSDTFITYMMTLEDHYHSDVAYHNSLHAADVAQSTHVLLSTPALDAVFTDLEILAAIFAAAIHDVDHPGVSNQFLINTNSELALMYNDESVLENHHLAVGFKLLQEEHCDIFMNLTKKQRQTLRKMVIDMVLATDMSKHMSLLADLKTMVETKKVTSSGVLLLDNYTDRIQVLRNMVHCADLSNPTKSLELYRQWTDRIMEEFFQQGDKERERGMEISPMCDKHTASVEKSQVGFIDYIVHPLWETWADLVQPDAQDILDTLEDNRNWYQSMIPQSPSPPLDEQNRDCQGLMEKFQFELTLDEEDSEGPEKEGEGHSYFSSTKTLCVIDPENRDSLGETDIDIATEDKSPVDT
Protocol: as §1

human PDE4A1 = target: T4, human PDE4A1 (Homo sapiens, UniProt P27815); test: Inhibition of cAMP hydrolysis by recombinant human PDE4A1; assay type: biochemical
T4 construct: made in house
T4 sequence (P27815 1-647 isoform P27815-4): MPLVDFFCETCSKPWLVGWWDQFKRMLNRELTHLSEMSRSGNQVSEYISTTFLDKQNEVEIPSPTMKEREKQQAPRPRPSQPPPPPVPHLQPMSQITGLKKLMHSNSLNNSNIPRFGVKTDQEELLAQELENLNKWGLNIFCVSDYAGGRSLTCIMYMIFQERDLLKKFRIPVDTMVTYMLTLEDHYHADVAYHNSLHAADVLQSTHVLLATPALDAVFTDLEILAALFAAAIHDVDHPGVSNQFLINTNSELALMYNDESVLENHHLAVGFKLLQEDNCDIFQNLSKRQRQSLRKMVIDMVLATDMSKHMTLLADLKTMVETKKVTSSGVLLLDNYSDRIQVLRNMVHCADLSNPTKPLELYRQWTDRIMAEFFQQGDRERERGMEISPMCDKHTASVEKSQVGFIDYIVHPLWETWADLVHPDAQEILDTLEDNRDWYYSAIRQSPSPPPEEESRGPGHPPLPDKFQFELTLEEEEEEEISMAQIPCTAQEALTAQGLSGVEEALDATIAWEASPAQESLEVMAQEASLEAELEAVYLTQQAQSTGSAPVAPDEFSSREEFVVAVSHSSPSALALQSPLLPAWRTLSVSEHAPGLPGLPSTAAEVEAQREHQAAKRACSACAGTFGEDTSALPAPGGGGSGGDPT
Protocol: as §1

Balb/c mice = test: Forced-swim test in Balb/c mice; assay type: in vivo, mouse; details: i.p. 23, 5 and 1 hr prior; fluoxetine 10 mg/kg, 18k/l or 14 10 mg/kg, 21 1 mg/kg
Protocol: The study was conducted according to a standard operation procedure and in accordance with all Federal regulations. Water and food were freely available in the home cages. […] Mice were given a swimming pretest session, once a day for two successive days. […] During the pretest and test sessions, each mouse was placed for […] in a plastic cylinder (45 cm high×20 cm diameter), which was filled to a depth of 28 cm with water (23±1° C.). The duration of immobility, which was defined as floating in an upright position without additional activity other than that necessary for the animal to keep its head above water, was recorded. For the subchronic administration tests, the animals were separated as above and vehicle or chemicals were given by i.p. administration 23, 5 and 1 hr before the FST. The subchronic experiments were done similar to the study described above except for the pretest training that was not carried out.
Mice in the first session were treated with vehicle or the drugs acutely, whereas mice in the second sessions were treated subchronically, i.e., vehicle or drugs were given i.p. 23, 5, and 1 hr before the FST. The experiment was performed similar to Experiment 1 except for the pretest training, which was not carried out in the second session.

ICR mice = test: Forced-swim test in ICR mice; assay type: in vivo, mouse
Protocol: Forty male ICR mice, weighed 26.2±0.3 g, were housed in a temperature-controlled room (22-23° C.) and maintained on a 12-hour on 12-hour off light cycle (lights on at 6:00 AM). Water and food were freely available in the home cages. […] Saline containing the same percentage of DMSO was used as vehicle. The lower doses were tested followed by the larger doses 1 week later, when the mice were again randomly divided into four groups as described above. The forced-swim test (FST) was carried out as described previously. Mice were given a swimming pretest session, once a day for two successive days. Twenty-four hours after the last session, mice were injected vehicle or the lower dose of each test compound by the i.p. route 30 min prior to the FST. One week later, administration of the larger dose of each of the test compounds was repeated. During the pretest and test sessions, each mouse was placed for 6 min in a plastic cylinder (45 cm high×20 cm diameter), which was filled to a depth of 28 cm with water (23±1° C.). The duration of immobility, which was defined as floating in an upright position without additional activity other than that necessary for the animal to keep its head above water, was recorded.

[1] = Mouse liver microsome stability assay; assay type: in vitro ADME; details: for half life, mouse liver microsomes: NADPH; for MLM t1/2: Table 16
Protocol: (§2) A typical assay mixture contained either mouse or rat liver microsomes (0.5 mg of protein), […] potassium phosphate buffer (pH 7.4), 40 μM test compounds, 0.5 mM NADP+, 0.5 mM glucose-6-phosphate, 5 IU/mL glucose-6-phosphate dehydrogenase, 1 mg/mL diethylenetriaminepentaacetic acid (DETAPAC) and 5 mM MgCl2 in a final incubation volume of 0.1 mL. After 0, 10, 25, 40 and […], the incubations were stopped by the addition of 1 ml CH2Cl2/2-propanol (3:1 v:v). The mixture was centrifuged at 12,000×g for 1 min, and the organic layer was separated from the aqueous fraction. The organic fraction was evaporated with a stream of argon and the residue was taken up in methanol (200 μL) and injected into the HPLC system described above.
(§3) Microsomal incubations (final volume 0.25 mL) with the SSRIs, dual PDE4 inhibitor/SSRIs or PDE4 inhibitor was done with an HPLC assay as described above. Diluted stocks of either mouse, human or rat liver microsomes (0.5 mg of protein), […] potassium phosphate buffer (pH 7.4), 0.5 mM NADI)^+, 0.5 mM glucose-6-phosphate, 5 IU/mL glucose-6-phosphate dehydrogenase, 0.6 mM DETAPAC, and 3 mM MgC12 were combined and placed on ice. For a metabolic stability assay, either vehicle or 40 μM test compound was added and the incubation was initiated at 37° C. with constant shaking. After 0, 10, 25, 40 and 60 min, the incubations were stopped by the addition of 1 mL CH2Cl2/2-propanol (3:1, v:v). After thorough mixing, the organic layer was separated from the aqueous portion by centrifugation at 12,000×g. The organic material was evaporated with a stream of argon. The residue was dissolved in methanol (200 μL) and the sample was analyzed by HPLC.

[2] = Human liver microsome stability assay; assay type: in vitro ADME
Protocol: as §3

mice = test: Morris water maze test; assay type: in vivo, mouse; details: 3 mg/kg, compared to control mice
Protocol: Compounds 19 and 115 were tested in a Morris water maze test. The escape latency (time to climb onto a hidden platform) for each mouse was recorded as a memory test. […] Compared to a group of control mice, compound 19 and 115 caused a 30% improvement in memory at 3 mg/kg. […] This is not completely unexpected as SSRIs often require repeated dosing to see a large and significant effect. […] Multiple dosing likely will increase the efficacy of the compounds tested.

[3] = Rat liver microsome stability assay; assay type: in vitro ADME
Protocol: as §2
as §3, with “After 0, 10, 25, 40 and 60 min, the incubations were stopped by the addition of 1 mL CH2Cl2/2-propanol (3:1, v:v). After thorough mixing, the organic layer was separated from the aqueous portion by centrifugation at 12,000×g. The organic material was evaporated with a stream of argon.” left out

SMILES: NC1CC1c1cccnc1 (stereo not shown) [2-(pyridine-3-yl)cyclopropanamine]
- GRK2 stimulation or inhibition (GRK2): potent stimulators of GRK2

SMILES: COc1ccc(F)cc1CCC1CCC(CCNCCCCCN2N=C(c3ccc(OC)c(OC)c3)C3CC=CCC3C2=O)O1 (racemic) [Compound 21, 4-(3,4-Dimethoxy-phenyl)-2-[5-(2-{5-[2-(5-fluoro-2-methoxy-phenyl)-ethyl]-thtrahydro-furan-2-yl}-ethylamino)-pentyl]-4,5,8,8a-tetrahydro-2H-phthalazin-1-one]
- pIC50 (rodent PDE4): 6.6
- PDE4A1/PDE4D3 inhibitory selectivity ratio (human PDE4D3): < 500 fold
- PDE4B3/PDE4D3 inhibitory selectivity ratio (human PDE4D3): 100 fold
- Ki (human PDE4D3; Example 29, read-out: Ki, human PDE4D3): 2 nM
- Ki (human PDE4B3): 199 nM
- Ki (human PDE4A1; Example 29, read-out: Ki, human PDE4A1): > 1000 nM
- Ki (human PDE4A1; Table 14, read-out: Human PDE4A1 Ki): < 1000 nM
- immobility, forced-swim test, subchronic (Balb/c mice): did not change immobility
- immobility, forced-swim test, acute, higher dose (ICR mice; 3 mg/kg i.p., vs vehicle, P<0.05): significantly reduced immobility
- duration of immobility, forced-swim test, acute (ICR mice; 0.3 and 3 mg/kg i.p.): decreased duration of immobility in a dose-dependent manner
- efficacy relative to fluoxetine on a molar basis (ICR mice; 21 0.5 μmol/kg vs fluoxetine 65 μmol/kg): 129 fold
- half life, mouse liver microsomes [1]: 2.57 h
- MLM t1/2 [1]: 2.565 h
- metabolism in human liver microsomes ([2]; NADPH, up to 60 min): not detectably metabolized
- half-life at 40 μM ([2]; human, liver microsomes, pH 7.4, Table 16, read-out: HLM t1/2): > 1 h

SMILES: COc1ccc(F)cc1CCC1CCC(CCN)O1 (stereo not shown) [Compound 28]
- GRK2 stimulation or inhibition (GRK2): potent stimulators of GRK2
- improvement in memory (escape latency) (mice): ~10%

SMILES: CNCCC1CCC(CCc2cc(F)ccc2OC)O1 (stereo not shown) [Compound 24, (2-{5-[2-(5-Fluoro-2-methoxy-phenyl)-ethyl]-tetrahydro-furan-2-yl}-ethyl)-methyl-amine]
- half life, mouse liver microsomes [1]: 0.967 h
- MLM t1/2 [1]: 0.975 h
- half life, rat liver microsomes ([3]; NADPH): 2.15 h
- RLM t1/2 ([3]; Table 16): 2.15 h
